For 14 molecules, IC50 results are on record in US20240247015A1, “PHOSPHORUS DERIVATIVES AS NOVEL SOS1 INHIBITORS” (BAYER AKTIENGESELLSCHAFT, priority 2021, published 2024).

The experiment concerns the target interaction of human SOS1 (SOS1) with human K-RasG12C (Homo sapiens (Human), UniProt Q07889). The experiment can be described thus: Biochemical assay: hK-RasG12C interaction assay with hSOS1 (HTRF). Format: binding. The following applies: GST-hK-RasG12C with His-hSOS1, 60 min incubation at 20° C., mean, read-out: K-RasG12C - SOS interaction assay IC50 (mean). On the procedure:
Biochemical Assay: hK-RasG12C Interaction Assay with hSOS1 This assay quantifies the equilibrium interaction of human SOS1 (SOS1) with human K-Ras^G12^C (K-RasG12C). Detection of the interaction is achieved by measuring homogenous time-resolved fluorescence resonance energy transfer (HTRF) from antiGST-Europium (FRET donor) bound to GST-K-RasG12C to anti-6His-XL665 bound to His-tagged hSOS1 (FRET-acceptor). The assay buffer containes 5 mM HEPES pH 7.4 (Applichem), 150 mM NaCl (Sigma), […] (Promega), 1 mM DTT (Thermofisher), 0.05% BSA Fraction V, pH 7.0, (ICN Biomedicals), 0.0025% (v/v) Igepal (Sigma) and 100 mM KF (FLUKA). The expression and purification of N-terminally GST-tagged human K-RasG12C (termed GST-hK-RasG12C) and N-terminally His-tagged human SOS1 (termed His10-hSOS1) is described in WO 2019/201848, page 220 line 12-34 and page 222, line 13-25 (expression) and page 222, line 26 to page 223, line 17 (purification). Concentrations of protein batches used are optimized to be within the linear range of the HTRF signal. A Ras working solution is prepared in assay buffer containing typically 10 nM GST-hK-RasG12C and 2 nM antiGST-Eu(K) (Cisbio, France). A SOS1 working solution is prepared in assay buffer containing typically 20 nM His-hSOS1 and 10 nM anti-6His-XL665 (Cisbio, France). An inhibitor control solution is prepared in assay buffer containing nM anti-6His-XL665 without SOS1. Fifty nl of a 100-fold concentrated solution of the test compound in DMSO are transferred into a black microtiter test plate (384 or 1536, Greiner Bio-One, Germany). For this, either a Hummingbird liquid handler (Digilab, MA, USA) or an Echo acoustic system (Labcyte, CA, USA) is used. All steps of the assay are performed at 20° C. A volume of 2.5 μl of the Ras working solution is added to all wells of the test plate using a Multidrop dispenser (Thermo Labsystems). After 2 min preincubation, 2.5 μl of the SOS1 working solution are added to all wells except for those wells at the side of the test plate that are subsequently filled with 2.5 μl of the inhibitor control solution. After 60 min incubation the fluorescence is measured with a Pherastar (BMG, Germany) using the HTRF module (excitation 337 nm, emission 1: 620 nm, emission 2: 665 nm). The ratiometric data (emission 2 divided by emission 1) are normalized using the controls (DMSO=0% inhibition, inhibition control wells with inhibitor control solution=100% inhibition). Compounds are tested in duplicates at up to 11 concentrations (for 20 μM, 5,7 μM, 1,6 μM, 0.47 μM, 0.13 μM, 38 nM, 11 nM, 3.1 nM, 0.89 nM, 0.25 nM and 0.073 nM). IC50 values are calculated by 4-Parameter fitting using a commercial software package (Genedata Screener, Switzerland).
In general terms: TR-FRET usually uses a lanthanide donor and a delayed reading to cut background.

Chain of interaction of human SOS1 (SOS1) with human K-RasG12C (Q07889 564-1049 limits assumed): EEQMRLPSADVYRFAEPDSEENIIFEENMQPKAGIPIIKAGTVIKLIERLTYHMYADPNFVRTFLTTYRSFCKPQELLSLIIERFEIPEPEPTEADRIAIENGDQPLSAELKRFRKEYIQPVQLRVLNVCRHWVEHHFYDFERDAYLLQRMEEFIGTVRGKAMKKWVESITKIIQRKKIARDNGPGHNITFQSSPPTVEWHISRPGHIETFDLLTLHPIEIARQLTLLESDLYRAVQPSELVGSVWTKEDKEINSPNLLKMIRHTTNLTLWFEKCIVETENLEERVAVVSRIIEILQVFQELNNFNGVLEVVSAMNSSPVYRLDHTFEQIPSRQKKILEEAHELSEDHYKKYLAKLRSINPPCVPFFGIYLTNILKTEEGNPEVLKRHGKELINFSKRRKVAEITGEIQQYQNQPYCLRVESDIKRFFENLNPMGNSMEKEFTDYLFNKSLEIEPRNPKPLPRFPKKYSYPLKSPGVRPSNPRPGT

What is called IC50 is the midpoint of a concentration-inhibition curve. On to `Cc1nc(N[C@H](C)c2cccc(C(F)(F)C(C)O)c2F)c2cc(P(C)(=O)C(C)C)ncc2n1` (single isomer, unassigned) [Example 83, (2R*)-1,1-difluoro-1-{2-fluoro-3-[(1R)-1-({2-methyl-6-[methyl(propan-2-yl)phosphoryl]pyrido[3,4-d]pyrimidin-4-yl}amino)ethyl]phenyl}propan-2-ol], for which the IC50 is 31 nM. As to `Cc1nc(N[C@H](C)c2cccc(C(F)(F)C(C)O)c2F)c2cc(P(C)(=O)C(C)C)ncc2n1` (single isomer, unassigned) [Example 84, (2R*)-1,1-difluoro-1-{2-fluoro-3-[(1R)-1-({2-methyl-6-[methyl(propan-2-yl)phosphoryl]pyrido[3,4-d]pyrimidin-4-yl}amino)ethyl]phenyl}propan-2-ol], the IC50 was found to be 24.1 nM. For the molecule `Cc1nc(N[C@H](C)c2cccc(C(F)(F)C(O)C(C)C)c2F)c2cc(P(C)(C)=O)ncc2n1` (single isomer, unassigned) [Example 87, (2R*)-1-{3-[(1R)-1-{[6-(dimethylphosphoryl)-2-methylpyrido[3,4-d]pyrimidin-4-yl]amino}ethyl]-2-fluorophenyl}-1,1-difluoro-3-methylbutan-2-ol], the IC50 came to 2.86 nM. The figure for `CCC(O)C(F)(F)c1cccc([C@@H](C)Nc2nc(C)nc3cnc(P(C)(C)=O)cc23)c1F` (single isomer, unassigned) [Example 89, (2R*)-1-{3-[(1R)-1-{[6-(dimethylphosphoryl)-2-methylpyrido[3,4-d]pyrimidin-4-yl]amino}ethyl]-2-fluorophenyl}-1,1-difluorobutan-2-ol] is 6.06 nM; for `Cc1nc(N[C@H](C)c2cccc(C(F)(F)C(C)O)c2F)c2cc(P3(=O)CCCC3)ncc2n1` (single isomer, unassigned) [Example 111, 1-(4-{[(1R)-1-{3-[(2R*)-1,1-difluoro-2-hydroxypropyl]-2-fluorophenyl}ethyl]amino}-2-methylpyrido[3,4-d]pyrimidin-6-yl)-1lambda^5-phospholan-1-one] it is 21.5 nM.

In the case of `Cc1nc(N[C@H](C)c2cccc(C(F)(F)C(C)O)c2F)c2cc(P3(=O)CCCC3)ncc2n1` (single isomer, unassigned) [Example 112, 1-(4-{[(1R)-1-{3-[(2R*)-1,1-difluoro-2-hydroxypropyl]-2-fluorophenyl}ethyl]amino}-2-methylpyrido[3,4-d]pyrimidin-6-yl)-1lambda^5-phospholan-1-one], the IC50 was found to be 11.2 nM. Then `Cc1nc(N[C@H](C)c2cccc(C(F)F)c2F)c2cc(P(C)(=O)C(C)C)ncc2n1` (single isomer, unassigned) [Example 115], with 80.3 nM; and `Cc1nc(N[C@H](C)c2cccc(C(F)F)c2F)c2cc(P(C)(=O)C(C)C)ncc2n1` (single isomer, unassigned) [Example 116], with 57.6 nM. Then `CCP(C)(=O)c1cc2c(N[C@H](C)c3cccc(C(F)F)c3F)nc(C)nc2cn1` (single isomer, unassigned) [Example 118], with 56.5 nM. For the molecule `CCP(C)(=O)c1cc2c(N[C@H](C)c3cccc(C(F)F)c3F)nc(C)nc2cn1` (single isomer, unassigned) [Example 119], the IC50 stood at 42.9 nM. Regarding `CCP(C)(=O)c1cc2c(N[C@H](C)c3cccc(C(F)(F)CO)c3F)nc(C)nc2cn1` (single isomer, unassigned) [Example 131], the IC50 amounted to 11.5 nM. In the case of `CCP(C)(=O)c1cc2c(N[C@H](C)c3cccc(C(F)(F)CO)c3F)nc(C)nc2cn1` (single isomer, unassigned) [Example 132], the IC50 is 11.7 nM.

Turning to `Cc1nc(N[C@H](C)c2cccc(C(F)(F)CO)c2F)c2cc(P(C)(=O)C(C)C)ncc2n1` (single isomer, unassigned) [Example 134], the IC50 was found to be 25.2 nM. Regarding `Cc1nc(N[C@H](C)c2cccc(C(F)(F)CO)c2F)c2cc(P(C)(=O)C(C)C)ncc2n1` (single isomer, unassigned) [Example 135], the IC50 came to 17 nM.
